Experimental data reported in ChEMBL document CHEMBL1149290, “Discovery of tetralin carboxamide growth hormone secretagogue receptor antagonists via scaffold manipulation” (J Med Chem, 2004).

Key:
[1] = Clearance in rat; format: ADME, organism-based; conditions: in vivo
[2] = Oral bioavailability in rat; format: ADME, organism-based; conditions: in vivo
[3] = Inhibition of dopaminergic receptor; parameters: species or system Homo sapiens
[4] = target: Muscarinic acetylcholine receptor; assay: Inhibition of muscarinic receptor; format: protein assay, Homo sapiens
[5] = Inhibition of histaminergic receptor
[6] = Inhibition of adrenergic receptor; parameters: species or system Homo sapiens
[7] = target: Voltage-gated inwardly rectifying potassium channel KCNH2 (Homo sapiens, UniProt Q12809); assay: Inhibition of hERG receptor; format: toxicity
Chain of Voltage-gated inwardly rectifying potassium channel KCNH2 (Q12809 whole entry): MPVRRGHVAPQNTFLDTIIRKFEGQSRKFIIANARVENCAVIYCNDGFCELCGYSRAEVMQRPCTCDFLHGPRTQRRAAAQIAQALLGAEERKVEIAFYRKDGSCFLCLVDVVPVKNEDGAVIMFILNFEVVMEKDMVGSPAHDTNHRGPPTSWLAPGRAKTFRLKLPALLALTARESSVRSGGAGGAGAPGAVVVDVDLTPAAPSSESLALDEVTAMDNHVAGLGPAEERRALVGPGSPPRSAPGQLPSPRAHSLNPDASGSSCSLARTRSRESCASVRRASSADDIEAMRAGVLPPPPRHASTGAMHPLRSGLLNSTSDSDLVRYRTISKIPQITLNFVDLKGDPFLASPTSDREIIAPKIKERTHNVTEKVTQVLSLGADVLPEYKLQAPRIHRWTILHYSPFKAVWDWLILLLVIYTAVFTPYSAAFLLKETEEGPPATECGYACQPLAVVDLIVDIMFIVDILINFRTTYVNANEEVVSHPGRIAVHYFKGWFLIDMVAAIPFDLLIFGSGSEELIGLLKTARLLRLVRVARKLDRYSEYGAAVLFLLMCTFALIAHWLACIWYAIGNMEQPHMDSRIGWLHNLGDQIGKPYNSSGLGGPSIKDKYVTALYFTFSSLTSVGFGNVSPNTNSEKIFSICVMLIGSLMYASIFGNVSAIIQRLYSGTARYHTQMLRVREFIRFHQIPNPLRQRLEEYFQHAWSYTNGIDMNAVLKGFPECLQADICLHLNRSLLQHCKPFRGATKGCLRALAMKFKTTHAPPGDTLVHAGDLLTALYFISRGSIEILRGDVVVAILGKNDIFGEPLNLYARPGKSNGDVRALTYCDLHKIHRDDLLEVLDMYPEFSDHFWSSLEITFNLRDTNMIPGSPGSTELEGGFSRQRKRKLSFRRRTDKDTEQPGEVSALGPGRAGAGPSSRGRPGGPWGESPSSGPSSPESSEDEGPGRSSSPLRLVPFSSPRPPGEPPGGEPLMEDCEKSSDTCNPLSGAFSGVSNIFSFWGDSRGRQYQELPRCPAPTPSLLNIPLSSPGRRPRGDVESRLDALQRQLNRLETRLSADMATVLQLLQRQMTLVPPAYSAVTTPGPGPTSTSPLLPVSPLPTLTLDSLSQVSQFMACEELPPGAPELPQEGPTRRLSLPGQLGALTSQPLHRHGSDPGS

[8] = target: Growth hormone secretagogue receptor type 1 (Homo sapiens, UniProt Q92847); assay: Binding affinity to GHSR
Chain of Growth hormone secretagogue receptor type 1 (Q92847 whole entry): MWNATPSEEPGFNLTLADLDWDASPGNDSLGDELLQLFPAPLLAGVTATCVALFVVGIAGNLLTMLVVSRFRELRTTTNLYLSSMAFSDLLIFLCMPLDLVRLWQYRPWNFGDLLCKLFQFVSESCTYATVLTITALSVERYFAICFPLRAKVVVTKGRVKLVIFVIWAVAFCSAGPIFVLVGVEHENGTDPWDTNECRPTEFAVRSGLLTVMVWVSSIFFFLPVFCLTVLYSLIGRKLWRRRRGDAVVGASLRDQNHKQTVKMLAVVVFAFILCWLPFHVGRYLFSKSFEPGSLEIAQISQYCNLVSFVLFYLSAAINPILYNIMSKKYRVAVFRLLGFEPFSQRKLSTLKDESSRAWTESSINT

Compound | clearance [1] | bioavailability [2] | IC50 [8] | also measured
CCN(CC)c1ccc(NC(=O)c2c(-c3c(Cl)cccc3Cl)noc2C)cc1 | 61.7 mL/min/kg |  |  | 
CCN(CC)c1ccc(NC(=O)C2(N(C)C(=O)OCC(C)C)CCc3cccc(OC)c3C2)cc1 (racemic) | 21.7 mL/min/kg | 19% |  | IC50 [3]: > 33 µM; IC50 [4]: > 33 µM; IC50 [5]: > 33 µM; IC50 [6]: > 33 µM; IC50 [7]: 6.1 µM
CCN(CC)c1ccc(NC(=O)C2CCc3ccccc3C2)cc1 (racemic) |  |  | 2.7 µM (antagonist) | 
CCN(CC)c1ccc(NC(=O)C2(NC(=O)OCC(C)C)CCc3ccccc3C2)cc1 (racemic) |  |  | 0.011 µM (antagonist) | 
CCN(CC)c1ccc(NC(=O)C2(NC(=O)OCC(C)C)CCc3cccc(Cl)c3C2)cc1 (racemic) |  | 3.8% | 0.002 µM (antagonist) | 
CCN(CC)c1ccc(NC(=O)C2(NC(=O)OC(C)(C)C)CCc3ccccc3C2)cc1 (racemic) |  |  | 0.12 µM (antagonist) | 
